# Results reported in US20190208778A1, “INSECT REPELLENT SURFACE COMPOSITION” (ENVANCE TECHNOLOGIES, LLC, priority 2012, published 2019).
# Tested on: Musca domestica
# Assay: House fly surface repellent bioassay (treated floor tile bait stations)
# Type: in vivo
# Settings: house flies
# Protocol: 100 adult house flies (Musca domestica) were placed into the assay then exposed to treated bait stations, a control and test treatment. Fly response to the bait stations were recorded at predetermined time points with a video camera. Percent repellency was calculated and comparisons between treatments were made. All test house fly specimens were taken from in-house laboratory reared colonies, and were confirmed alive and in good condition prior to testing. No specimens showing any visible signs of stress, physical damage or pathogen infection were used in the study. When applicable a 1:1 male to female sex ratio was used to ensure equal susceptibility. The test arena was assembled and prepared prior to test initiation. The test arena consisted of a large 73.66 cm×73.66 cm×73.66 cm PVC frame work fitted with Thrips screening. At the top of the enclosed arena a USB powered video camera was suspended and centered over a 62.87 cm×62.87 cm section of white ceiling tile divided (marked with pencil) into equal quadrants. The bait stations were constructed as follows: A 1⁄4'' diameter hole was drilled in the center of a 10.8 cm by 10.8 cm white glazed clay tile. A 50 ml Falcon tube cap was affixed to the bottom of the tile over the hole to create a reservoir for the bait to be contained. Bait was pipetted into the reservoir then a cotton wick in inserted into the hole preventing flies from entering the reservoir and allowing bait to wick to the surface. The bait was at a 4:1:1 ratio of water, sugar, and coffee creamer. The chemical application method was as follows: Material was pipette applied to tile surface and allowed approximately 1 hour to dry. The chemical volume applied was 34 μl. Fly specimens were exposed for 24 hours. Assays were performed with a minimum of three replicates. The Tyra Tech Insect repellent surface cleaning/washing composition was comprised of 14.8% Active Ingredient (AI) blend and 85.2% other ingredients. It was confirmed that video cameras were appropriately viewing the center of the ceiling tile with a computer and computer program (such as […]). Flies were anesthetized with CO2 and then 100 flies were placed into a clean container. Insects were allowed to recover and acclimate to testing conditions for 1 hour prior to test initiation by placing and opening container with flies into assembled assay arena and allowing flies to disperse. All surfaces of bait station were cleaned with ethanol and allowed to dry. A pipette were used to treat the tile surface with the test material and treatment was spread over entire surface with pipette tip; material was allowed to dry for approximately 1 hour prior to test initiation. When dry, 5 ml of bait was pipetted into the reservoir. A cotton wick was inserted into the hole to ensuring that the top of the wick sits flush with the tile surface. A treated and a control bait station was placed into the test arena, one each centered within a randomly designated quadrant opposite of each other into a testing arena. Cameras were allowed to capture fly response over a 24 hour time period. Images were transferred to computer and data were analyzed. Photos were taken at each of the following time points: 15 minutes, 30 minutes, 1, 2, 3, 4, 5, 6, 7, 8, 12, 18 and 24 hours post introduction of treatment. At the conclusion of the test the image files were reviewed and the number of flies at each bait station was counted and recorded for both treatment and control. Average percent repellency was used as a standard measure of repellency of the treatments against insect species. Percent repellency was calculated for each treatment replicate by the following formula: Mean percent repellency for each treatment based on the data of the replicates at the given observation time points: Repellency between treatments was then compared using SAS version 9.3 to calculate the repeated measures ANOVA with time as repeated measure. Tukey's correction was used to ensure a remained at 0.05.
structure (smiles),measurement,setting,value
CCN(CC)C(=O)c1cccc(C)c1 [DEET],Average mean percent repellency over 24 hours,,57.1%
same,Median mean percent repellency over 24 hours,,61.3%
same,statistical comparison of repellency between treatments,"repeated measures ANOVA, Tukey's correction",significantly less repellent than any other treatment
same,mean percent repellency,time 0.25 h post introduction,66.7%
same,mean percent repellency,time 1 h,75.0%
same,mean percent repellency,time 2 h,0.0%
same,mean percent repellency,time 3 h,50.0%
same,mean percent repellency,time 4 h,50.0%
same,mean percent repellency,time 5 h,62.5%
same,mean percent repellency,time 6 h,22.2%
same,mean percent repellency,time 7 h,60.0%
same,mean percent repellency,time 8 h,70.6%
same,mean percent repellency,time 12 h,44.4%
same,mean percent repellency,time 18 h,83.3%
same,mean percent repellency,time 24 h,100.0%
